# Columns and labels:
# [1] = system: brain level of homovanillic acid (HVA); assay: Effect of Drug Compounds on Brain Level of Homovanillic Acid (HVA); assay type: in vivo, male Long Evans rats; conditions: ratio to HVA level in control group (1.0); rat brain minus cerebella, 0.15 mmoles/kg i.p. standard dose, 2 or 3 hours; only ratios greater than 1.6 considered of practical significance
# Protocol: In testing for the effectiveness of the present drug compounds on the brain level of homovanillic acid (HVA), the drugs were administered intraperitoneally to male Long Evans rats (Simonsen) usually as aqueous solutions but in certain cases as suspensions in 0.5% methocel in 0.9% saline. The standard testing dose was 0.15 mmoles/kg. body weight. The test and control groups consisted of 3-5 and 5 animals, respectively. The analyses were performed on brains (minus cerebella) removed 2 or 3 hours later. In the analysis, standard extraction and fluorimetric methods were used.
# In the results, the level of brain HVA in each test group is expressed as a ratio to the level of HVA in an accompanying control group that was injected with either a 0.9% saline or a 0.5% solution of methocel. Even though ratios of […] 1.3 usually have statistical significance, only ratios greater than 1.6 are considered to be of practical significance for the pharmacological classification of drugs.
# [2] = system: Methamphetamine induced hyperactivity; assay: Antagonism of Methamphetamine induced hyperactivity in rats; assay type: in vivo, Male Long-Evans black hooded rats; set-up: key: (+): potentiation of Methamphetamine; (-): antagonism of Methamphetamine; conditions: sign printed with oral ED50; rat, oral 5, 20 and 80 mg./kg.
# Protocol: Male Long-Evans black hooded rats, weighing between 100 and 150 grams, were administered the test drugs at oral doses of 5, 20 and 80 mg./kg. 1 hour prior to the administration of Methamphetamine at an intraperitoneal dose of 1 mg./kg. Three animals were tested at each dose level. The rats were placed in individual activity chambers equipped with photocells (Lehigh Valley, Model 1497). Antagonism of Methamphetamine induced hyperactivity was recorded as digital counts received from the photocells at one and two hour intervals. Placebo controls received a volume dose of the 0.5 carboxymethylcellulose vehicle. The data were evaluated by a one-way analysis of variance computer program. ED50 's were calculated by the method of Litchfield and Wilcoxon (J. Pharmacol. Exp. Therap.; 96:99, 1949).
# In the results, a (+) indicates a potentiation of Methamphetamine and a (-) is antagonism of Methamphetamine.
SMILES,HVA Ratio [1],direction of effect on Methamphetamine [2]
"CCCCCCCCCCCCCCCC(=O)OCCOCCN1CCN(C2=Nc3cc(Cl)ccc3Nc3ccccc32)CC1 [IX, 8-Chloro-11-[4-2-(2-palmitoyloxyethoxy)-ethylpiperazinyl]-5H-dibenzo[b,e][1,4]diazepine]",1.0,(-)
"OCCOCCN1CCN(C2=Nc3cc(Cl)ccc3Nc3ccccc32)CC1 [VI, 8-Chloro-11-[4-2-(2-hydroxyethoxy)ethyl-1-piperazinyl]-5H-dibenzo[b,e][1,4]diazepine]",2.8,(-)
"COCCOCCN1CCN(C2=Nc3cc(Cl)ccc3Nc3ccccc32)CC1 [VII, 8-Chloro-11[4-2-(2-methoxyethoxy)-ethylpiperazine]-5H-dibenzo[b,e][1,4]diazepine]",3.1,(-)
"OCCOCCOCCN1CCN(C2=Nc3cc(Cl)ccc3Nc3ccccc32)CC1 [VIII, 8-Chloro-11-[4-2-(2-hydroxyethoxyethoxy)-ethylpiperazinyl]-5H-dibenzo[b,e][1,4]diazepine]",1.4,(-)
"CCCCCCCCCCCCCCCC(=O)OCCOCCN1CCN(C2=Nc3cc(Cl)ccc3N(C(=O)CCCCCCCCCCCCCCC)c3ccccc32)CC1 [X, 8-Chloro-11-[4-2-(2-palmitoyloxyethoxy)-ethylpiperazinyl]-5-palmitoyl-dibenzo[b,e][1,4]diazepine]",,(-)

# — patent US4097597A, “Dibenzo[b,e][1,4]diazepines” (Abbott Laboratories, priority 1977, dated 1978)
